Values quoted from earlier work as cited in patent US20250009647A1, “PHARMACEUTICAL COMPOSITION” (priority 2021, published 2025).

Tests used:
[1] = in water
[2] = in DMSO

SMILES	pKa(H2O) [1]	pKa(DMSO) [2]
O=C(O)C(=O)O [Oxalic acid]	1.46	6.2
O=C(O)c1cc2ccccc2c(Cc2c(O)c(C(=O)O)cc3ccccc23)c1O [Pamoic acid]	2.67	
NS(=O)(=O)O [Sulfamic acid]	0.99	6.5
